Assay results from US20120046301A1, “Substituted Cyclic Carboxamide and Urea Derivatives as Ligands of the Vanilloid Receptor” (Gruenenthal GmbH, priority 2010, published 2012).

System: male mice (NMRI)
Experiment: Formalin test on mice (second phase)
Format: in vivo
Conditions: dose 10.0 mg/kg
Description: The investigation to determine the antinociceptic action of the compounds according to the invention is carried out in the formalin test on male mice (NMRI, 20 bis 30 g body weight, Iffa, Credo, Belgium).
According to D. Dubuisson et al., Pain 1977, 4, 161-174, in the formalin test the first (early) phases ([…] after the formalin injection) and the second (late) phase (15 to 60 minutes after the formalin injection) are different. The early phase, which is a direct reaction to the formalin injection, represents a model of acute pain, whereas the late phase is regarded as a model of persistent (chronic) pain (T. J. Coderre et al., Pain 1993, 52, 259-285). The corresponding literature descriptions are hereby incorporated by way of reference and count as part of the disclosure.
The compounds according to the invention are investigated in the second phase of the formalin test, in order to obtain information on the effects of substances on chronic/inflammation pain.
The administration time of the compounds according to the invention before the formalin injection is selected depending on the type of administration of the compounds according to the invention. The intravenous administration of 10 mg/kg body weight of the test substances is carried out 5 minutes before the formalin injection. […]
The nociceptive behaviour is then continuously assessed by observing the animals for an investigation period of 3 minutes in the (second) late phase of the formalin test (21 to 24 minutes after the formalin injection). The pain behaviour is quantified by counting the time in seconds during which the animals licked and bit the affected paw during the investigation period.
The comparison is made in each case with control animals, which receive instead of the compounds according to the invention a neutral vehicle (0.9% aqueous sodium chloride solution) before the formalin injection. Based on the quantification of the pain behaviour, the effect of the substance in the formalin test is measured as the change compared to the corresponding control. […]

| Molecule | FTm, p.o. % effect @ dose (mg/kg) [% @10.0] |
| --- | --- |
| CC(C)(C)c1cc(CNC(=O)N2CCN(c3ncccc3Cl)CC2)n(-c2cccc(Cl)c2)n1 [Example 2, N-((3-tert-butyl-1-(3-chlorophenyl)-1H-pyrazol-5-yl)methyl)-4-(3-chloropyridin-2-yl)piperazine-1-carboxamide] | 1 |

Same assay, conditions: dose 30.0 mg/kg

| Molecule | FTm, p.o. % effect @ dose (mg/kg) [% @30.0] |
| --- | --- |
| CC(C)(C)c1cc(CNC(=O)N2CCN(c3ncccc3Cl)CC2)n(-c2cccc(Cl)c2)n1 [Example 2, N-((3-tert-butyl-1-(3-chlorophenyl)-1H-pyrazol-5-yl)methyl)-4-(3-chloropyridin-2-yl)piperazine-1-carboxamide] | 36 |

Same assay, conditions: dose 100.0 mg/kg

| Molecule | FTm, p.o. % effect @ dose (mg/kg) [% @100.0] |
| --- | --- |
| CC(C)(C)c1cc(CNC(=O)N2CCN(c3ncccc3Cl)CC2)n(-c2cccc(Cl)c2)n1 [Example 2, N-((3-tert-butyl-1-(3-chlorophenyl)-1H-pyrazol-5-yl)methyl)-4-(3-chloropyridin-2-yl)piperazine-1-carboxamide] | 66 |

Biological target: T1, vanilloid receptor 1 (VR1/TRPV1 receptor) (Homo sapiens, UniProt Q8NER1)
T1 construct: expressed in transfected cells; host or cells: CHO K1 cells (ECACC), stably transfected
Experiment: FLIPR assay, CHO K1 cells transfixed with the human VR1 gene, displacement of capsaicin (Pharmacological Method II)
Format: cell-based
Conditions: capsaicin (Cap) 100 nM, Ki from IC50 by Cheng-Prusoff
Description: In addition compounds according to the invention of the general formula (I) may be preferred, that in the FLIPR assay with CHO K1 cells that have been transfixed with the human VR1 gene effect in a concentration of less than 2000 nM, preferably less than 1000 nM, particularly preferably less than 300 nM, most particularly preferably less than 100 nM, even more preferably less than 75 nM, still most preferably less than 50 nM, and most of all preferably less than 10 nM, a 50% displacement of capsaicin that is present in a concentration of 100 nM.
In this connection the Ca^2+ inflow is quantified in the FLIPR assay with the aid of a Ca^2+-sensitive dye (Type Fluo-4, Molecular Probes Europe BV, Leiden, Netherlands) in a fluorescent imaging plate reader (FLIPR, Molecular Devices, Sunnyvale, USA), as described hereinafter.
The agonistic and antagonistic action of the substances to be investigated on the vanilloid receptor (VR1) can also be determined with the following assay. According to this assay the Ca^2+ inflow through the channel is quantified in the Fluorescent Imaging Plate Reader (FLIPR, Molecular Devices, Sunnyvale, USA) with the aid of a Ca^2+ sensitive dye (Type Fluo-4, Molecular Probes, Europe BV, Leiden, Netherlands).
Chinese hamster ovary cells (CHO K1 cells, European Collection of Cell Cultures (ECACC) Great Britain) are stably transfixed with the VR1 gene. For the functional investigations these cells are plated out on poly-D-lysine-coated, black 96-well plates with a clear floor (BD Biosciences, Heidelberg, Germany) in a density of 25,000 cells/well. The cells are incubated overnight at 37° C. and 5% CO2 in a culture medium (Nutrient Mixture ‘am's F12, 10 Vol % FCS (fetal calf serum), 18 μg/ml L-proline. The following day the cells are incubated with Fluo-4 (Fluo-4 2 μM, Pluronic F127 0.01 Vol %, Molecular Probes in HBSS (Hank's buffered saline solution), Gibco Invitrogen GmbH, Karlsruhe, Germany) for 30 minutes at 37° C. The plates are then washed 3 times with HBSS buffer and, after a further incubation for 15 minutes at RT, used in the FLIPR assay for the Ca^2+ measurement. The Ca^2+-dependent fluorescence is in this connection measured both before and after addition of the substances to be investigated (wavelength λex=488 nm, λem=540 nm). The quantification is carried out by measuring the highest fluorescence intensity (FC, Fluorescence Counts) over time.
The FLIPR protocol consists of 2 additions of substances. First of all the compounds to be tested (10 μM) are pipetted onto the cells and the Ca^2+ inflow is compared with the control (capsaicin 10 μM) (% activation referred to the Ca^2+ signal after addition of 10 μM capsaicin). After 5 minutes' incubation 100 nM capsaicin are added and the inflow of Ca^2+ is again determined.
Desensitising agonists and antagonists lead to a suppression of the Ca^2+ inflow. The % inhibition compared to the maximum achievable inhibition with 10 μM capsaicin is calculated.
Starting from the percentage displacement caused by different concentrations of the compounds of the general formula I to be tested, IC50 inhibiting concentrations that produce a 50% displacement of capsaicin were calculated. K, values for the test substances were obtained by reconversion using the (Cheng, Prusoff; Biochem. Pharmacol. 22, 3099-3108, 1973) relationship.

T1 sequence (Q8NER1 whole entry): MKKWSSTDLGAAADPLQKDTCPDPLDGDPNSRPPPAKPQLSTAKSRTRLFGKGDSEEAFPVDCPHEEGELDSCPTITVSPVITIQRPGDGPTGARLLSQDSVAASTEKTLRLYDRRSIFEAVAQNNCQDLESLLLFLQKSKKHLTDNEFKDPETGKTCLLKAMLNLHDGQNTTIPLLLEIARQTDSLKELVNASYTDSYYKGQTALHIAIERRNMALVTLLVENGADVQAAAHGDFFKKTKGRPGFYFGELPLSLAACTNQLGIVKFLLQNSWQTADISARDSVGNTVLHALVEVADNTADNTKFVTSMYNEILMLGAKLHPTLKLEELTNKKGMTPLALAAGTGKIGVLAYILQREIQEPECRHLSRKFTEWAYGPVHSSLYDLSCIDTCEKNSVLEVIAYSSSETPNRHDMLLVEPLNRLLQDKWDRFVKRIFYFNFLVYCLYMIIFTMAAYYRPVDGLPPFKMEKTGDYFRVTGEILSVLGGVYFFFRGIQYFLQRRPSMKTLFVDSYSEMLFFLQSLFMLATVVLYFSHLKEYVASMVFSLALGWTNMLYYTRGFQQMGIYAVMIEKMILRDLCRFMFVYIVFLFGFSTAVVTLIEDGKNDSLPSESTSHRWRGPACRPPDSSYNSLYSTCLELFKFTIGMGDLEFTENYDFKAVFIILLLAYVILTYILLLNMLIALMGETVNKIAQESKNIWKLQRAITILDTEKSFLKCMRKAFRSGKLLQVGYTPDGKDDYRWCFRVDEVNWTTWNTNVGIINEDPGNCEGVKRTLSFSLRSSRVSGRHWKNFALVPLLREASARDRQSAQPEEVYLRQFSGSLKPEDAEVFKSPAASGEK

| Molecule | Ki [nM] |
| --- | --- |
| O=C(NCc1cc(C2CC2)nn1-c1cccc(Cl)c1)N1CCN(c2ncccc2Cl)CC1 [Example 10, N-((1-(3-chlorophenyl)-3-cyclopropyl-1H-pyrazol-5-yl)methyl)-4-(3-chloropyridin-2-yl)piperazine-1-carboxamide] | 85 |
| CCCCCn1nc(C(F)(F)F)cc1CNC(=O)N1CCN(c2ncccc2Cl)CC1 [Example 12, 4-(3-chloropyridin-2-yl)-N-((1-pentyl-3-(trifluoromethyl)-1H-pyrazol-5-yl)methyl)piperazine-1-carboxamide] | 68 |
| O=C(NCc1cc(C(F)(F)F)nn1-c1cccc(Cl)c1)N1CCN(c2ccccc2F)CC1 [Example 46, N-((1-(3-chlorophenyl)-3-(trifluoromethyl)-1H-pyrazol-5-yl)methyl)-4-(2-fluorophenyl)piperazine-1-carboxamide] | 45 |
| O=C(NCc1cc(C(F)(F)F)nn1-c1cccc(Cl)c1)N1CCN(c2ccc(F)cc2)CC1 [Example 47, N-((1-(3-chlorophenyl)-3-(trifluoromethyl)-1H-pyrazol-5-yl)methyl)-4-(4-fluorophenyl)piperazine-1-carboxamide] | 48 |
| COc1ccccc1N1CCN(C(=O)NCc2cc(C(F)(F)F)nn2-c2cccc(Cl)c2)CC1 [Example 48, N-((1-(3-chlorophenyl)-3-(trifluoromethyl)-1H-pyrazol-5-yl)methyl)-4-(2-methoxyphenyl)piperazine-1-carboxamide] | 61 |
| COc1ccc(N2CCN(C(=O)NCc3cc(C(F)(F)F)nn3-c3cccc(Cl)c3)CC2)cc1 [Example 50, N-((1-(3-chlorophenyl)-3-(trifluoromethyl)-1H-pyrazol-5-yl)methyl)-4-(4-methoxyphenyl)piperazine-1-carboxamide] | 63 |
| CC(C)(C)c1cc(CNC(=O)N2CCN(c3cccc(Cl)c3)CC2)n(-c2cccc(Cl)c2)n1 [Example 52, N-((3-tert-butyl-1-(3-chlorophenyl)-1H-pyrazol-5-yl)methyl)-4-(3-chlorophenyl)piperazine-1-carboxamide] | 36 |
| CC(C)(C)c1cc(CNC(=O)N2CCN(c3ccc(Cl)cc3)CC2)n(-c2cccc(Cl)c2)n1 [Example 53, N-((3-tert-butyl-1-(3-chlorophenyl)-1H-pyrazol-5-yl)methyl)-4-(4-chlorophenyl)piperazine-1-carboxamide] | 42 |
| O=C(NCc1cc(C(F)(F)F)nn1-c1cccc(Cl)c1)N1CCN(c2ccc(Cl)cc2)CC1 [Example 54, 4-(4-chlorophenyl)-N-((1-(3-chlorophenyl)-3-(trifluoromethyl)-1H-pyrazol-5-yl)methyl)piperazine-1-carboxamide] | 56 |
| N-((1-(3-chlorophenyl)-3-(trifluoromethyl)-1H-pyrazol-5-yl)methyl)-4-(1-(4-fluorophenyl)ethyl)piperazine-1-carboxamide [Example 22] | 41 |

More lines, now with the values ahead:

| Ki [nM] | Molecule |
| --- | --- |
| 10 | CC(C)(C)c1cc(CNC(=O)N2CCN(c3ncccc3Cl)CC2)n(-c2cccc(Cl)c2)n1 [Example 2, N-((3-tert-butyl-1-(3-chlorophenyl)-1H-pyrazol-5-yl)methyl)-4-(3-chloropyridin-2-yl)piperazine-1-carboxamide] |
| 14 | O=C(NCc1cc(C(F)(F)F)nn1-c1cccc(Cl)c1)N1CCN(c2ncccc2Cl)CC1 [Example 3, N-((1-(3-chlorophenyl)-3-(trifluoromethyl)-1H-pyrazol-5-yl)methyl)-4-(3-chloropyridin-2-yl)piperazine-1-carboxamide] |
| 5 | CC(C)(C)c1cc(CNC(=O)N2CCN(c3ccccc3F)CC2)n(-c2cccc(Cl)c2)n1 [Example 5, N-((3-tert-butyl-1-(3-chlorophenyl)-1H-pyrazol-5-yl)methyl)-4-(2-fluorophenyl)piperazine-1-carboxamide] |
| 16 | Cc1c(C(F)(F)F)nn(-c2cccc(Cl)c2)c1CNC(=O)N1CCN(c2ncccc2Cl)CC1 [Example 9, N-((1-(3-chlorophenyl)-4-methyl-3-(trifluoromethyl)-1H-pyrazol-5-yl)methyl)-4-(3-chloropyridin-2-yl)piperazine-1-carboxamide] |
| 27 | O=C(NCc1cc(C(F)(F)F)nn1-c1cccc(Cl)c1)N1CCC(c2ccccc2)CC1 [Example 26, N-((1-(3-chlorophenyl)-3-(trifluoromethyl)-1H-pyrazol-5-yl)methyl)-4-phenylpiperidine-1-carboxamide] |
| 27 | O=C(NCc1cc(C(F)(F)F)nn1-c1cccc(Cl)c1)N1CC=C(c2ccc(F)cc2)CC1 [Example 34, N-((1-(3-chlorophenyl)-3-(trifluoromethyl)-1H-pyrazol-5-yl)methyl)-4-(4-fluorophenyl)-5,6-dihydropyridine-1(2H)-carboxamide] |
| 35 | COc1cccc(N2CCN(C(=O)NCc3cc(C(F)(F)F)nn3-c3cccc(Cl)c3)CC2)c1 [Example 49, N-((1-(3-chlorophenyl)-3-(trifluoromethyl)-1H-pyrazol-5-yl)methyl)-4-(3-methoxyphenyl)piperazine-1-carboxamide] |
| 7 | O=C(NCc1cc(C(F)(F)F)nn1-c1cccc(Cl)c1)N1CCN(c2ccccc2Cl)CC1 [Example 51, 4-(2-chlorophenyl)-N-((1-(3-chlorophenyl)-3-(trifluoromethyl)-1H-pyrazol-5-yl)methyl)piperazine-1-carboxamide] |
| 4 | O=C(NCc1cc(C(F)(F)F)nn1-c1cccc(Cl)c1)N1CCN(c2ncccc2C(F)(F)F)CC1 [Example 56, N-((1-(3-chlorophenyl)-3-(trifluoromethyl)-1H-pyrazol-5-yl)methyl)-4-(3-(trifluoromethyl)pyridin-2-yl)piperazine-1-carboxamide] |
